From patent publication US8329179B2, “Death domain containing receptor 4 antibodies and methods” (Human Genome Sciences, Inc., priority 1997, dated 2012)
Entries after “also recorded” stand apart in the source; their conditions may differ. Where a SMILES comes first, the peptide text is derived from it. The star is where a group is joined. Cbz = O=C(OCc1ccccc1)*; CH2F = FC*

Tests used:
[1] = tested on: TRAIL-induced apoptosis in MCF7 cells; test: Blocking of TRAIL-induced apoptosis in MCF7 cells by receptor-Fc fusions; format: cell-based, human; conditions: FIG. 6A
[2] = tested on: DR4-induced apoptosis; test: Cell death assay: DR4-induced apoptosis in cells transiently transfected with a DR4 expressing construct, with death protease inhibitors; format: cell-based, human; conditions: FIG. 5C
[3] = tested on: DR4-induced apoptosis in MCF7 human breast carcinoma cells and 293 human embryonic kidney cells; test: DR4-induced apoptosis cell death assay (transient transfection, X-Gal staining); format: cell-based; conditions: z-VAD-fmk added at 10 μM, 5 hrs after transfection; cells stained 32 hours following transfection
Experimental: Overexpression of Fas/APO-1 and TNFR-1 in mammalian cells mimics receptor activation (M. Muzio, et al., Cell 85, 817-827 (1996); M. P. Boldin, et al, Cell 85, 803-815 (1996)). Thus, this system was utilized to study the functional role of DR4. Transient expression of DR4 in MCF7 human breast carcinoma cells and 293 human embryonic kidney cells induced rapid apoptosis.
Cell death assays are performed essentially as previously described (A. M. Chinnaiyan, et al., Cell 81, 505-12 (1995); M. P. Boldin, et al, J Biol Chem 270, 7795-8 (1995); F. C. Kischkel, et al., EMBO 14, 5579-5588 (1995); A. M. Chinnaiyan, et al., J Biol Chem 271, 4961-4965 (1996)). Briefly, MCF-7 human breast carcinoma clonal cell lines stably transfected with either vector alone or a CrmA expression construct (M. Tewari, et al., J Biol Chem 270, 3255-60 (1995)), are transiently transfected with pCMV-DR4-galactosidase (or pCMV-DR4-galactosidase (lacking the death domain)) in the presence of a ten-fold excess of pcDNA3 expression constructs encoding the indicated proteins using lipofectamine (GIBCO-BRL). 293 cells are likewise transfected using the CaPO4 method. The ICE family inhibitor z-VAD-fmk (Enzyme Systems Products, Dublin, Calif.) is added to the cells at a concentration of 10 μM, 5 hrs after transfection. […]

Row | Compound | Blocking of the ability of TRAIL to induce apoptosis [1] | Blocking of DR4-induced apoptosis [2] | Blocking of DR4-induced apoptosis ([2]; listed as z-VAD-fink) | DR4-induced apoptosis [3]
1 | CD95-Fc: extracellular domain of CD-95 expressed as Fc fusion | not influenced | – | – | –
2 | COC(=O)C[C@H](NC(=O)[C@H](C)NC(=O)[C@@H](NC(=O)OCc1ccccc1)C(C)C)C(=O)CF [z-VAD-fmk] (Cbz-Val-Ala-Asp(OMe)-CH2F) | – | inhibit the apoptotic action of DR4; also recorded: efficiently blocked | blocked | blocked
